Earlier results as cited in patent US10561704B2, “Compositions and methods for treating neuropsychiatric disorders using an endothelin-B receptor agonist” (MIDWESTERN UNIVERSITY, priority 2013, dated 2020).
Where a SMILES comes first, the peptide text is derived from it.

System: Aβ treated rats
Details: Briyal et al., 2011; cited from earlier work

Compound	Aβ induced oxidative stress and cognitive deficits
Cc1noc(NS(=O)(=O)c2cccc3c(N(C)C)cccc23)c1C [BMS182874]	prevent
CC(C)C[C@@H]1NC(=O)[C@@H](C(C)C)NC(=O)[C@@H]2CCCN2C(=O)[C@@H](CC(=O)O)NC(=O)[C@@H](Cc2c[nH]c3ccccc23)NC1=O [BQ123] (HELM PEPTIDE1{L.[dW].[dD].P.[dV]}$PEPTIDE1,PEPTIDE1,1:R1-5:R2$$$V2.0)	prevent
